Read-outs that look alike come from different tables or passages of the source.
Columns and labels:
[1] = Change over time in stability in PBS (phosphate buffer); type: physicochemical; details: 100 μg/ml in PBS, 37° C.
Description: Vinaxanthone (SPF-3059-5) and SPF-3059-1 were each dissolved in PBS (Dulbecco's PBS(-)) to a concentration of 100 μg/ml. The obtained solutions were preserved at 37° C., and the amount of the agent remaining in the solution was quantified by HPLC in individual time points from initiation of the preservation until 4 weeks after initiation of the preservation, so that a change over time in the remaining percentages was examined. The same HPLC conditions as those of Example 10 were applied.

[2] = target: T1, mouse semaphorin 3A (Sema3A) (Mus musculus, UniProt O08665); assay: Inhibitory activity on collapse activity of Sema3A (growth cone retraction, chicken embryo dorsal root ganglion); type: cell-based
T1 sequence (O08665 21-772): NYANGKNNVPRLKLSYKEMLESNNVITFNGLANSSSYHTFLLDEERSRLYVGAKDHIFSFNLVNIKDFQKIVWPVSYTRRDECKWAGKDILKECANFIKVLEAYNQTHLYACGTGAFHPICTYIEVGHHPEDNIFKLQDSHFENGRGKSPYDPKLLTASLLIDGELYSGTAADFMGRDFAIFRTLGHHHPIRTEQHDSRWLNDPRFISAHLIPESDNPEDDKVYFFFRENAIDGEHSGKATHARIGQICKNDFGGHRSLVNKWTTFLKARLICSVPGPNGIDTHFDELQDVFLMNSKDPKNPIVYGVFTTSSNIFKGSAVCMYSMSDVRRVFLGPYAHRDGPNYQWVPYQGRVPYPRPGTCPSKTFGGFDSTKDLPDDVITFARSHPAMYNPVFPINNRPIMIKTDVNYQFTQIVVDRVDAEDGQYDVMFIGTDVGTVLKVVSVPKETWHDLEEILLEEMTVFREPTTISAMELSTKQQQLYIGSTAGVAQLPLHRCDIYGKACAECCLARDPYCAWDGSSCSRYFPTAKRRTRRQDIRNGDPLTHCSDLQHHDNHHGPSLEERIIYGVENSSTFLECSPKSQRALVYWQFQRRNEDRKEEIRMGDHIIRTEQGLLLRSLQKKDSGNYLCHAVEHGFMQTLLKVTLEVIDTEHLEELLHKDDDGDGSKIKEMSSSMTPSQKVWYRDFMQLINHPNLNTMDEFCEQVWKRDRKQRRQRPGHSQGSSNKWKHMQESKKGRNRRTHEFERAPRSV
Description: A polylysine-coated 96-well plate (Sumitomo Bakelite Co., Ltd.) was further coated with laminin (20 μg/ml laminin, room temperature, 1 hour). Then, 100 μl of a medium (F12 medium containing 10% fetal bovine serum, 20 ng/ml NGF, 100 units/ml penicillin, and 100 μg/ml streptomycin) was added to each well. Thereafter, a dorsal root ganglion excised from a 7-day-old chicken embryo was inoculated into the resulting well, and the obtained mixture was then cultured under conditions consisting of 16 to 20 hours, 5% CO2 and 37° C. Thereafter, the compounds described in Example 3 above were each added in different concentrations to the resulting culture, and the obtained mixture was then cultured for 1 hour. Thereafter, 2 units/ml mouse semaphorin 3A (Sema3A) was added to the culture, and the obtained mixture was further cultured for 1 hour. One hour after initiation of the culture, glutaraldehyde was added to the culture, such that it promptly could reach a final concentration of 1%. Then, the obtained mixture was then left at a room temperature for 15 minutes to fix a tissue section. Thereafter, the percentage of the retracted growth cone was measured under a microscope. A well, to which no Sema3A had been added, was used as a control. The percentage of growth cone retraction in a negative control group (to which neither the compound nor Sema3A was added) was defined as (A)%; the percentage of growth cone retraction in a positive control group (to which the compound had not been added but Sema3A was added) was defined as (B)%; and the percentage of growth cone retraction in a test group (to which both the compound and Sema3A were added) was defined as (C)%. The concentration of each compound that held the formula C=(A+B)/2 was defined as an IC50 value.

[3] = Solubility (physicochemical properties of isolated compounds); details: water, hexane, methanol, DMSO
[4] = Retention of vinaxanthone in corneal tissues after eye drops administration; type: in vivo; details: rabbit
Description: Rabbits (Kbs: JW, healthy, male, body weight: 2.00 to 2.49 kg) were each administered with 50 μL of a PBS solution (0.12 M phosphate buffer (pH 7.4)) of vinaxanthone (0.5, 1.5 and 5.0 mg/mL) via eye drops administration onto the cornea of the right eye, and their eyes were then closed for 30 seconds. Thereafter, 0.5, 2, and 6 hours after completion of the administration, the rabbits were subjected to euthanasia, and the excised eyeballs were then washed with a normal saline. Thereafter, the cornea was collected from each eyeball. The cornea was homogenized, and vinaxanthone was then extracted therefrom. A change over time in the content and concentration of vinaxanthone in the corneal tissues was examined using HPLC.

[5] = system: corneal sensory nerve in corneal graft; assay: Mouse keratoplasty model: regeneration of nerve fibers in corneal graft, corneal sensitivity, corneal vascularization; type: in vivo; details: vs control group
Source text: In this experiment, there were used genetically modified mice (P0-Cre/Floxed-EGFP mouse), in which corneal parenchymal cells, corneal endothelial cells, and nerves expressed a type of fluorescent protein, Green Fluorescent Protein (GFP), in the cornea. Using these mice, corneal sensory nerve fibers traveling in the cornea can easily be observed by removing a layer of corneal endothelial cells.
The cornea derived from a syngeneic wild-type mouse was transplanted into each of the above-mentioned mice. Thereafter, 50 ul of vinaxanthone (which had been dissolved in Rinderon (1 mg/ml betamethasone sodium phosphate injection solution) to a concentration of 0.1 mg/mL) was administered to the mice via subconjunctival injection immediately after completion of the operation and then, every two days in a total of 11 times. Only a solvent containing no drugs was administered in the same amount as described above to a control group. The removal of the suture was conducted one week after completion of the operation. Three weeks after completion of the operation, corneal sensitivity was evaluated, the mice were then subjected to euthanasia, and eyeballs were then excised. A comparison was made regarding the regeneration of nerve fibers in the corneal graft. Corneal sensitivity was evaluated by measuring corneal sensitivity in the center of the corneal graft every week after completion of the operation, using a Cochet-Bonnet corneal esthesiometer. […]
Thereafter, a total of the lengths thereof were measured, and a comparison was then made between the vinaxanthone administration group and the control group.

CC(=O)c1c(C)c(C(=O)C2COc3cc(O)c(O)c(C(=O)O)c3C2=O)cc2c(=O)c3c(C(=O)O)c(O)c(O)cc3oc12 (centres unmarked) [SPF-3059-1, reference compound]
Time until decomposed in an almost total amount in PBS [1]: approximately 1 week

CC(=O)c1cc2c(=O)c3cc(O)c(O)cc3oc2c(C(C)=O)c1-c1coc2cc(O)c(O)c(C(=O)O)c2c1=O [SPF-3059-2]
IC50 ([2]; 2 units/ml mouse Sema3A, 7-day-old chicken embryo dorsal root ganglion, read-out: IC50 (inhibition of Sema3A-induced growth cone retraction)): < 0.188 µM

CC(=O)c1cc2c(=O)c3c(C(=O)O)cc(O)cc3oc2c(C(C)=O)c1-c1coc2cc(O)c(O)c(C(=O)O)c2c1=O [SPF-3059-4]
Solubility [3]: Insoluble in water and hexane, soluble in methanol and DMSO

CC(=O)c1cc2c(=O)c3c(C(=O)O)c(O)c(O)cc3oc2c(C(C)=O)c1-c1coc2cc(O)c(O)c(C(=O)O)c2c1=O [SPF-3059-5, vinaxanthone]
Time for which the compound was stable in PBS [1]: ≥ 4 weeks
Remaining percentage in PBS ([1]; until 4 weeks after initiation of the preservation, HPLC): ≥ 96%
concentration at 6 h ([4]; male, Kbs: JW, cornea, topical, 5 mg/mL (50 μL eye drop), 50 μL eye drops of 5.0 mg/mL PBS solution, 6 hours after administration, read-out: Concentration of vinaxanthone retained in the cornea): > 75 ng/mL
Time for which the concentration in the cornea considered necessary for the expression of drug effects was retained ([4]; eye drop of 0.5 mg/mL solution): 0.5 h
Transfer into the corneal tissues ([4]; eye drops 0.5, 1.5 and 5.0 mg/mL): transferred into the corneal tissues in an applied concentration/dose dependent manner
IC50 ([2]; as quoted in Example 2, converted from ng/mL, read-out: IC50 value obtained by the in vitro experiment (inhibitory activity on the collapse activity of Sema3A in Example 4) (converted)): 0.13 µM
IC50 ([2]; as quoted in Example 2, read-out: IC50 value obtained by the in vitro experiment (inhibitory activity on the collapse activity of Sema3A in Example 4) (converted)): 0.13 µM
Regeneration of nerve fibers in the corneal graft (total length of regenerated fibers) ([5]; 50 ul of 0.1 mg/mL subconjunctival injection, every two days, 11 times, three weeks after operation, p<0.01): promoted
Corneal sensitivity in the center of the corneal graft (Cochet-Bonnet corneal esthesiometer, blink reflection) ([5]; three weeks after completion of the operation, p<0.01): improved
Vascularization into the corneal graft (total length of CD31-positive newly formed blood vessels) ([5]; three weeks after operation, no significant difference): not promoted

CC(=O)c1cc2c(=O)c3c(C(=O)O)c(O)c(O)cc3oc2c(C(C)=O)c1-c1coc2cc(O)cc(C(=O)O)c2c1=O [SPF-3059-12]
Solubility [3]: Insoluble in water and hexane, soluble in methanol and DMSO

CC(=O)c1cc2c(=O)c3c(C(=O)O)c(O)c(O)cc3oc2c(C(C)=O)c1-c1coc2cc(O)c(O)cc2c1=O [SPF-3059-24]
Solubility [3]: Insoluble in water and hexane, soluble in methanol and DMSO

CC(=O)c1cc2c(=O)c3c(C(=O)O)cc(O)cc3oc2c(C(C)=O)c1-c1coc2cc(O)c(O)cc2c1=O [SPF-3059-25]
Solubility [3]: Insoluble in water and hexane, soluble in methanol and DMSO

CC(=O)c1cc2c(=O)c3cc(O)c(O)cc3oc2c(C(C)=O)c1-c1coc2cc(O)c(O)cc2c1=O [SPF-3059-26]
Solubility [3]: Insoluble in water and hexane, soluble in methanol and DMSO

Reference: US20140018416A1, “THERAPEUTIC AGENT FOR CORNEAL SENSORY NERVE DAMAGE CONTAINING SEMAPHORIN INHIBITOR AS ACTIVE INGREDIENT” (DAINIPPON SUMITOMO PHARMA CO., LTD, priority 2011, published 2014)
